How the values were obtained:
[1] = Stability constant (binding ability) towards manganese; settings: relative to the EDTA chelate
[2] = in vivo
[3] = Relaxivities (T1, T2) of protons in plasma exposed to the complexes; format: physicochemical
Protocol: (§1) c) Relaxitivities of protons present in water and plasma exposed to the complexes of (a) and (b) (at 10 mHz) (37° C.) in milliseconds:
(§2) c) Relaxivities of protons present in water and plasma exposed to (a) and (b) at 10 mHz (37 C) in milliseconds: […]

[4] = in vivo; cited from earlier work
[5] = Relaxivities (T1, T2) of protons in water exposed to the complexes; format: physicochemical; settings: Table 5
Protocol: as §1, §2

[6] = in vivo; cited from earlier work; remark: listed apart in the source
[7] = Table 5, 1.56 × 10^-3 moles/liter
[8] = Table 5, 3.13 × 10^-3 moles/liter
[9] = Table 5, 6.25 × 10^-3 moles/liter

O=C(O)CN(CC(=O)O)[C@@H]1CCCC[C@H]1N(CC(=O)O)CC(=O)O (relative stereo) [DCTA, trans-N,N,N',N'-tetra-carboxymethyl-1,2-diaminocyclohexane]
Stability constant (binding ability) towards manganese [1]: several thousand times better

O=C([O-])CN(CCN(CC(=O)[O-])CC(=O)O)CCN(CC(=O)[O-])CC(=O)O.[Gd+3] [Gd DTPA, gadolinium chelate of diethylene-triamine-pentaacetic acid]
Organ distribution [2]: does not substantially interact with the hepatobiliary system | T1 plasma ([3]; 9.77 × 10^-5 moles/liter): 877 ms | T1 plasma [3, 7]: 134 ms | T2 plasma [3, 7]: 116 ms | T1 plasma ([3]; Table 5, 1.95 × 10^-4 moles/liter): 636 ms | T1 plasma [3, 8]: 69 ms | T2 plasma [3, 8]: 61 ms | T1 plasma ([3]; Table 5, 3.91 × 10^-4 moles/liter): 405 ms | T1 plasma [3, 9]: 39 ms | T2 plasma [3, 9]: 31 ms | T1 plasma ([3]; Table 5, 7.81 × 10^-4 moles/liter): 240 ms | Post T1 fat [4]: 185 milliseconds | Post T1 kidneys [4]: 205 milliseconds | Post T1 liver [4]: 195 milliseconds | Post T1 muscle [4]: 335 milliseconds | Post T1 spleen [4]: 285 milliseconds | T1 water ([5]; 1.56 × 10^-3 moles/liter): 163 ms | T2 water ([5]; 1.56 × 10^-3 moles/liter): 155 ms | T1 water ([5]; 1.95 × 10^-4 moles/liter): 1015 ms | T1 water ([5]; 3.13 × 10^-3 moles/liter): 83 ms | T2 water ([5]; 3.13 × 10^-3 moles/liter): 76 ms | T1 water ([5]; 3.91 × 10^-4 moles/liter): 582 ms | T1 water ([5]; 6.25 × 10^-3 moles/liter): 40 ms | T2 water ([5]; 6.25 × 10^-3 moles/liter): 35 ms | T1 water ([5]; 7.81 × 10^-4 moles/liter): 309 ms | Uptake by solid organs [6]: virtually no uptake by any solid organ

— US5039512A, “NMR imaging with paramagnetic polyvalent metal salts of poly-(acid-alkylene-amino)-alkanes” (Salutar, Inc., priority 1987, dated 1991)
